Data: patent US11866509B2, “Humanized antibodies against CEACAM1” (Famewave Ltd., priority 2014, dated 2024)

T1: CEACAM1 (Homo sapiens, UniProt P13688)
T1 sequence (P13688 35-526): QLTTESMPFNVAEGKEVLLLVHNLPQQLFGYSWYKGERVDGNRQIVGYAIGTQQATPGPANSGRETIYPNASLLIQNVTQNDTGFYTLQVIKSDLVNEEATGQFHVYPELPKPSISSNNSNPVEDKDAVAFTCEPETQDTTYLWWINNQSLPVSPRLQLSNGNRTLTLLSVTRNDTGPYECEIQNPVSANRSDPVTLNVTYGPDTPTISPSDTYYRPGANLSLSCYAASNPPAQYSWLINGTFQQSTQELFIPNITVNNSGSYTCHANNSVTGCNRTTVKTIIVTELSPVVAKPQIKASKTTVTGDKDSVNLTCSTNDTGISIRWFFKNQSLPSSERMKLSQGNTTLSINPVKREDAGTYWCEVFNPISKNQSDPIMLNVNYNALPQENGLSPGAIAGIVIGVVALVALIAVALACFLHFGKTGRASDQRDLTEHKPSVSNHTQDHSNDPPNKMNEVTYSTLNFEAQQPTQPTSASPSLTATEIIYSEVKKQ

B1: CM-10: chimeric anti-CEACAM-1 antibody disclosed in WO 2013/054331 (antibody, V domains shown)
VH: QVQLQQSGAELVRPGTSVKVSCKASGYAFTNNLIEWVKQRPGQGLEWIGVINPGSGDTNYNEKFKGKATLTADKSSNTAYMQLSSLTSDDSAVYFCARGDYYGGFAVDYWGQGTSVTVSS
VL: DIQMTQTTSSLSASLGDRVTISCRTSQDIGNYLNWYQQKPDGTVKLLIYYTSRLHSGVPSRFSGSGSGTDYSLTISNLEQEDIATYFCQQGKSLPRTFGGGTKLEIK

Assays:
[1] = tested on: CEACAM1 expression on sk-mel-2 cells; experiment: CEACAM1 extracellular staining by FACS, W.T. B-Raf mutated N-Ras cells; type: cell-based, human; details: 1 μM
Description: Volume equivalents of DMSO (vehicle) were used as control. […] Cells were then analyzed for CEACAM1 protein expression by FACS as described above. Vemurafenib-resistant cell lines were generated by gradual increase of the inhibitor's concentration in culture, up to 0.32 μM. […] Cells were then tested for CEACAM1 expression using MRG1 (murine antibody to human CEACAM1) in flow cytometry as described above. Total RNA was extracted with TRIZOL and cDNA was generated with a reverse transcriptase, according to routine protocols.

[2] = tested on: B-Raf V600E cell samples (526mel, 624mel); experiment: T-cell induced killing of melanoma cells, LDH release; type: cell-based, human; details: 1 μM, effector-target ratio 5:1, overnight
Description: More specifically, whereas only 50% ( 3/6) of the melanoma cells having a wild type B-Raf, i.e. a valine in position 600, expressed detectable levels of CEACAM1 (Ct of 36 and less), 100% (18/18) of the melanoma cells having a mutated B-Raf, i.e. a glutamic acid in position 600, expressed detectable levels of CEACAM1 (Ct of 36 and less). • B. CEACAM1 extracellular staining of cancer cells treated with B-Raf or MEK inhibitors. […] At each time point, CEACAM1 expression on the cells was determined by FACS. Volume equivalents of DMSO (vehicle) were used as control. […] Inhibitor-resistant cancer cells show increase in CEACAM1 expression and restored activity of MAPK pathway. Two vemurafenib-sensitive B-Raf V600E cell samples (526mel, 624mel) and vemurafenib-resistant cell lines derived therefrom were incubated for 2 days with 1 μM vemurafenib. Cells were then analyzed for CEACAM1 protein expression by FACS as described above. […] MAPK activity was measured in vemurafenib-sensitive and vemurafenib-resistant B-Raf V600E (624mel) cell samples by immunoblotting for phosphorylated ERK1/2 (pERK, Thr202/Tyr204), total ERK1/2 and actin after 24 hours of exposure to 160 nM vemurafenib. […] Initial vemurafenib concentration was 0.01 of the determined IC50 (0.64 nM). […] Cell killing was determined by LDH release. […]

[3] = biological target: T1, CEACAM1; details: WO 2010/125571, WO 2013/054331; cited from earlier work

Molecule	effect on CEACAM1 expression levels [1]	sensitization to cytotoxic T cells [2]	selectivity to CEACAM1 [3]
CCCS(=O)(=O)Nc1ccc(F)c(C(=O)c2c[nH]c3ncc(-c4ccc(Cl)cc4)cc23)c1F [vemurafenib]	no effect	significantly sensitizes melanoma cells to cytotoxic T cells	–
B1	–	–	highly selective to CEACAM1
